Laboratory results published in PMC7589200, “Identification of Putative Non-Substrate-Based XT-I Inhibitors by Natural Product Library Screening” (Biomolecules, 2020).

How the values were obtained:
[1] = molecular target: T1, recombinant human XT-I (Homo sapiens, UniProt Q86Y38); assay: NP library inhibitor screening, UPLC/ESI-MS/MS XT-I assay; assay type: biochemical; conditions: 50 μM inhibitor, technical duplicates; for XT-I Activity [%]: Table 2, relative to control (DMSO = 100%); for remaining activity at 50 µM: Table S1, relative to negative control containing DMSO
T1 sequence (Q86Y38 252-959 limits assumed): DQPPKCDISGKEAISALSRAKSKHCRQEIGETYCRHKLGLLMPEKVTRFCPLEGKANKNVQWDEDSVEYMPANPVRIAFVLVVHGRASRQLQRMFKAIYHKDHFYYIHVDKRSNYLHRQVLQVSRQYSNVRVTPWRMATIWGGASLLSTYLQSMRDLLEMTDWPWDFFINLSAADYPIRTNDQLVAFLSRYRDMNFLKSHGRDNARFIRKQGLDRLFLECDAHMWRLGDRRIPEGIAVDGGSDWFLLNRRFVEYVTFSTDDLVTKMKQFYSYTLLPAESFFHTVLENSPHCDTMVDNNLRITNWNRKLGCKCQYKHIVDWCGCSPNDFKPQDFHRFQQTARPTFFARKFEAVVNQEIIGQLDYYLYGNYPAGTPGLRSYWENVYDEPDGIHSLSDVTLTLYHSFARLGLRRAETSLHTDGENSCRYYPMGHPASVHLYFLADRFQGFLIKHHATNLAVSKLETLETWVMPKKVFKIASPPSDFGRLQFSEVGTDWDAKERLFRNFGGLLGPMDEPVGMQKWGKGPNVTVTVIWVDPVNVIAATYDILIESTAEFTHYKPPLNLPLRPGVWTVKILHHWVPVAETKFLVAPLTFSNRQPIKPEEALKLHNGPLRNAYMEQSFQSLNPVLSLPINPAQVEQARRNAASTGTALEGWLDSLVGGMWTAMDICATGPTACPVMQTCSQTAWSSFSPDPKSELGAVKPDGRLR

[2] = molecular target: T2, XT-I (Homo sapiens, UniProt Q86Y38); assay: Cellular (extra- and intracellular) XT-I activity of NHDFs by UPLC-ESI-MS/MS XT-I assay; assay type: cell-based; conditions: for extracellular XT-I activity relative to DMSO control / intracellular XT activity compared to DMSO control: then inhibitor-free media 48 h (96 h)
T2 sequence (Q86Y38 260-959 limits assumed): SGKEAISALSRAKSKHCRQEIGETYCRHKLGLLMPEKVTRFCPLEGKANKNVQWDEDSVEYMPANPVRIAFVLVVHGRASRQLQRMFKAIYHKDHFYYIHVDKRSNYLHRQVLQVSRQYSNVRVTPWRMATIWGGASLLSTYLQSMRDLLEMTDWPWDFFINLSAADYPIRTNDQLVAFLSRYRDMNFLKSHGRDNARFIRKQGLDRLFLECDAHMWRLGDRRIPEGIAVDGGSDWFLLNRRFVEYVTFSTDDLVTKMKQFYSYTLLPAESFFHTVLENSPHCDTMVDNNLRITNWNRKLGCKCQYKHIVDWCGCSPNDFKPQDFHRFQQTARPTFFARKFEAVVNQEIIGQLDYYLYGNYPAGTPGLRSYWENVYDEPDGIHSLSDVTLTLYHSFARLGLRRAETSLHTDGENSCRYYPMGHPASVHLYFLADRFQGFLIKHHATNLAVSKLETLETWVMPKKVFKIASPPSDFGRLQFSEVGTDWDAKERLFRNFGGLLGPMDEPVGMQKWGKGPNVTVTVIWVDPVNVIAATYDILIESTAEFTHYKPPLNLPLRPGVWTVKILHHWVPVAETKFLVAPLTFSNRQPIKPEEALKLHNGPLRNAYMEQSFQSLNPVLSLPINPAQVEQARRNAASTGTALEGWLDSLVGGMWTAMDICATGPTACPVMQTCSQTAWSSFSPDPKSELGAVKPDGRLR
Source text: The measurement of relative XT-I activity among different samples is based on the XT-catalyzed incorporation of xylose from UDP-D-xylose on a modified bikunin-derived peptide after a fixed reaction time. The assay was originally developed for the determination of XT activity in human- or cell-culture-derived samples [13] by ultra-performance liquid chromatography/electrospray ionization tandem mass spectrometry (UPLC/ESI-MS/MS). The UPLC/ESI-MS/MS XT assay was recently modified toward a XT-I selective activity determination in human serum and cell culture samples (unpublished data). The relative intensities of the xylosylated peptide species abundance obtained with the respective m/z ratio were directly proportional to the relative XT-I activity of the sample. The XT-I activity determined is expressed in arbitrary units and normalized to the total protein content per 1 mL sample volume in cell culture approaches. A calibrator probe with a fixed amount of recombinant XT-I enzyme was included in every UPLC-MS/MS XT-I assay for assay comparability across multiple runs. The assay reaction mixture (50 μL) contained 50% (v/v) of the respective XT-I enzyme solution and 50% (v/v) reaction buffer. The final XT-I assay contained 25 mM MES buffer (pH 6.5), 25 mM KF buffer, 5 mM MnCl2, 5 mM MgCl2, 7.0 μM modified acceptor peptide and 30 μM UDP-D-xylose. The sample preparation for UPLC/ESI-MS/MS was performed according to [13]. In brief, after sample incubation at 37 °C for 24 h, the reaction was stopped by heating at 99 °C for 10 min. After centrifugation (10,000× g, 10 min) the supernatant was diluted fivefold with UPLC water for analysis. All cell-based XT-I assays were carried out in three biological and three technical replicates per donor-derived primary cell culture, while the XT-I activity determination for screening or kinetic purposes was carried out at least in technical duplicates.
A former established cell culture model was utilized to investigate the effect of putative XT-I inhibitors on NHDFs. The inhibition studies were carried out with final inhibitor concentrations of 0.5, 1.0, 2.0 or 4.0 μM diluted in fully supplemented DMEM. In brief, unless otherwise stated, NHDFs were cultivated with a low density of 50 cells per mm^2 on a hard tissue culture substrate (100 × 20 mm dish) in fully supplemented DMEM with or without additional TGF-β1 (5 μg/L) for 24 h, promoting their transdifferentiation into proto-myofibroblasts. Thereafter, cells were treated with celastrol or amphotericin B in the presence or absence of TGF-β1 (5 μg/L) for an additional 48 h. Negative controls treated with solvent only were included for every sampling time. The final DMSO content of 0.04% (v/v) was kept constant in all inhibition experiments.
The cell culture supernatant was collected to analyze the extracellular XT-I activity, whereas the same cell culture monolayer was lysed using a fixed amount of 0.75 mL Nonidet P-40 (NP-40)-buffer (50 mM TRIS, 150 mM NaCl, 1% NP-40, pH 7.8) for the analysis of intracellular XT-I activities. After sample centrifugation (10,000× g, 10 min, 4 °C), the supernatant contained the intracellular XT-I protein. The lysates were also used for the BCA assay. The cellular XT-I activities were measured 48 h after inhibitor treatment (48 h) or an additional 48 h after inhibitor removal (96 h).

[3] = 1.0 μM with TGF-β1 (5 μg/L) 48 h
[4] = 2.0 μM with TGF-β1 (5 μg/L) 48 h

| Structure (SMILES) | XT-I Activity [%] [1] [%] | remaining activity at 50 µM [1] [%] | extracellular XT-I activity relative to untreated cells ([2]; 0.5 μM, 48 h, inhibitor still present in supernatant (Figure S3)) [fold] | extracellular XT-I activity relative to DMSO control [2, 3] [fold] | intracellular XT activity compared to DMSO control [2, 3] | intracellular XT activity ([2]; inhibitor present 48 h (Figure S3 setup, 0.5 μM)) | extracellular XT-I activity relative to DMSO control [2, 4] [fold] | intracellular XT activity compared to DMSO control [2, 4] |
| --- | --- | --- | --- | --- | --- | --- | --- | --- |
| CC1=C(O)C(=O)C=C2C1=CC=C1[C@@]2(C)CC[C@@]2(C)[C@@H]3C[C@](C)(C(=O)O)CC[C@]3(C)CC[C@]12C [Compound 68, Celastrol] | 38 | 38 | 0.8 ± 0.07 | 0.9 ± 0.06 | did not result in any detectable changes | No intracellular XT activity changes were observed | – | – |
| C[C@@H]1[C@H](O)[C@@H](C)/C=C/C=C/C=C/C=C/C=C/C=C/C=C/[C@H](O[C@@H]2O[C@H](C)[C@@H](O)[C@H](N)[C@@H]2O)C[C@@H]2O[C@](O)(C[C@@H](O)C[C@@H](O)[C@H](O)CC[C@@H](O)C[C@@H](O)CC(=O)O[C@H]1C)C[C@H](O)[C@H]2C(=O)O [Compound 17, Amphotericin B] | 25 | 25 | – | – | – | – | 0.6 ± 0.03 | did not result in any detectable changes |
